Measured values taken from PMC9940649, “Phytochemical Comparison of Medicinal Cannabis Extracts and Study of Their CYP-Mediated Interactions with Coumarinic Oral Anticoagulants” (Medical Cannabis and Cannabinoids, 2023).
Where two headings read alike, the source gives them in different places.

How the values were obtained:
CYP2C9 [1] = target: T1, CYP2C9 (Homo sapiens, UniProt P11712); assay: in vitro; conditions: both, microsomes, pH 7.4
Protocol: (§1) Briefly, 96-well incubation plates were prepared by adding inhibitors, substrates, and extracts (all dissolved in ethanol) to the respective wells. The 96-well plates were then placed on a thermoshaker (37°C, 500 rpm) until full evaporation of the solvent. […] HLM were thawed on ice, diluted in 100 mM phosphate buffer (pH 7.4) (final concentration 0.2 mg/mL), and added to the incubation plate that was prepared with the inhibitors and substrates. For preincubation, the plates were shaken at 500 rpm on an orbital shaker for 15 min at 37°C. […] The formation of hydroxylated metabolites was followed using UHPLC-MS/MS quantification with electrospray ionization in positive mode, as described in online supplementary material 2.
(§2) GraphPad Prism, version 9.0.1, was used for fitting of IC50 curves (inhibitor vs. normalized response, variable slope).

CYP2C9 [2] = target: T1, CYP2C9; assay: in vitro; conditions: both, microsomes, pH 7.4; remark: listed apart in the source
Protocol: as §1, §2

[3] = at 0.5 mg/mL protein concentration; cited from earlier work
CYP2C9 [4] = target: T1, CYP2C9; assay: CYP inhibition assay in pooled HLM, specific substrate tolbutamide
Protocol: as §1, §2

CYP3A4 [5] = target: T2, CYP3A4 (Homo sapiens, UniProt P08684); assay: CYP inhibition assay in pooled HLM, specific substrate testosterone
T2 sequence (P08684 2-503 limits assumed): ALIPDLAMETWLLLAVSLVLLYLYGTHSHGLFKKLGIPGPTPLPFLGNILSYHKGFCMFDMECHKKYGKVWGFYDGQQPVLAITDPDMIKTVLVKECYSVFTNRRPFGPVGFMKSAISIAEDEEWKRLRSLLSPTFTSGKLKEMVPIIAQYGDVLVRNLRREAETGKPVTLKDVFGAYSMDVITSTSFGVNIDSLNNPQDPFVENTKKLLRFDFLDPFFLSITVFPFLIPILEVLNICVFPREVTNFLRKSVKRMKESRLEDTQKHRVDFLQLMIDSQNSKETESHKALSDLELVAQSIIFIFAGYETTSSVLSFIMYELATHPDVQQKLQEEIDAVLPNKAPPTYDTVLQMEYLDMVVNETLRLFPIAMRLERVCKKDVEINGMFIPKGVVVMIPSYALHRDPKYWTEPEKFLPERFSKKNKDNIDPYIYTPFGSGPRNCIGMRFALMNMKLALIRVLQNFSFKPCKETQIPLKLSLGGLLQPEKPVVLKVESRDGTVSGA
Protocol: as §1, §2

CYP2C9 [6] = target: T1, CYP2C9; conditions: read-out: Literature Ki in pooled HLM; substrate warfarin; ref PMID 21356216; cited from earlier work
CYP3A4 [7] = target: T2, CYP3A4; conditions: read-out: Literature IC50 in pooled HLM; substrate testosterone; ref PMID 32587099; cited from earlier work

T1 sequence (P11712 whole entry): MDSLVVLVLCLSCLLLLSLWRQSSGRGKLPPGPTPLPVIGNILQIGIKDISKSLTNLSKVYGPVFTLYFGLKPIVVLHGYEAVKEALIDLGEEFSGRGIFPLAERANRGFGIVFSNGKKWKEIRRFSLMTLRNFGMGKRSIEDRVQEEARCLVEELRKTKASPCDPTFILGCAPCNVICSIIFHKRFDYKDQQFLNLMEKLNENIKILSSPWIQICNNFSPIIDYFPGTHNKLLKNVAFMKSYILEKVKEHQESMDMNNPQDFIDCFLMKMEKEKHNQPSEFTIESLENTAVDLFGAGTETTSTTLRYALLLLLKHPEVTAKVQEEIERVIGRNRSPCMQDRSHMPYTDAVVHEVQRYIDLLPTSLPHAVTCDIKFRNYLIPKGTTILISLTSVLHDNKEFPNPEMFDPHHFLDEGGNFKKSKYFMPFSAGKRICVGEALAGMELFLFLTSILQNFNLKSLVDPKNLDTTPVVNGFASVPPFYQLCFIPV

Row | SMILES | IC50 at 15 min (CYP2C9 [1]) | IC50 at 15 min (CYP2C9 [2]) | fraction unbound [3] | IC50 (CYP2C9 [4]) | IC50 (CYP3A4 [5]) | Ki (CYP2C9 [6]) | IC50 (CYP3A4 [7])
1 | C=C(C)[C@@H]1CCC(C)=C[C@H]1c1c(O)cc(CCCCC)cc1O [CBD (pure), cannabidiol] | 47 µM | > 100 µM | 0.12 |  |  |  | 
2 | CCCCCc1cc(O)c2c(c1)OC(C)(C)[C@@H]1CCC(C)=C[C@@H]21 [THC (pure), Δ9-tetrahydrocannabinol] | 6.9 µM | 73.3 µM | 0.05 | 0.081 µM | 23.6 µM | 1.5 µM | 26.1 ± 6.78 µM
